Two compounds from US20190307820A1, “COMPOSITIONS AND METHODS OF USING STAT1/3 INHIBITORS WITH ONCOLYTIC HERPES VIRUS” (priority 2016, published 2019) can be followed below.

The test system of assay [1] is oHSV-1 (G207) in U87 tumors. Put plainly: U87 xenograft, C16 with G207: viral DNA qPCR and immunohistochemistry of tumors. It is filed as in vivo, mice. The following applies: 5 mg/kg C16, day 13. The method, then:
FIG. 14A is a bar graph showing that C16 triggers oHSV-1 protein expression in microglia/macrophages and enhances virus concentration in glioblastoma in vivo. U87 xenograft mice were treated with vehicle or 5 mg/kg C16 with or without 6×10^6 PFU/ml oHSV-1 (G207) viruses (n=2). Two doses of G207 or vehicle and 4 doses (in every 3 or 4 days) of C16 was administered in total. Tumors were harvested at day 13 post-treatment. Total genomic DNA was extracted from the harvested tumors (n=2) and viral DNA (ICP27) was measured by qPCR (normalized to β-actin). Data shown are relative 2-ΔΔCT value±SE.
5 to 6 weeks old female athymic nude mice were obtained from Harlon laboratories. Human glioma U87 cells were implanted subcutaneously into the lower flank. When tumor size reached ˜75 to 100 mm3, vehicle or C16 (5 mg/kg) was administered intraperitoneally (IP). 2 days (FIG. 14) or 4 days (FIG. 15) after initial C16 administration, vehicle or oHSV-1 were injected intratumourally. Tumor volume was then measured using a caliper (Height×Length×Wide/2). At the end of the experiment, mice were euthanized by using CO2 asphyxiation.
DNA was extracted from 4% paraformaldehyde fixed tumor tissues by using an EZNA tissue DNA kit (Omega Bioteck). […]
Background: Real-time PCR tracks product formation cycle by cycle.

Another assay deals with HrR3 in U87 glioma cells. Description: PCR viral titer (ICP27 qPCR) of HrR3 in U87 glioma cells. Format: cell-based, HSV-1. As to conditions: HrR3 MOI of 1, 48 hours. The method, then:
FIGS. 2A-2B contain charts that show the effect of nifuroxazide on replication of oHSV-1. (FIG. 2A) Indicated cells were infected with HrR3 viruses at MOI-0.1. Viruses were harvested at 48 hours post-infected and titrated in vero cells. Data are presented as mean SD, *P<0.05 vs corresponding vehicle treatment. (FIG. 2B) U87 or glio cells were treated with HrR3 at a MOI of 1 and indicated concentration of nifuroxazide for 48 hours. Total DNA was extracted and subjected to qPCR to detect HSV-1 using ICP27 primer. nifuroxazide mediated oHSV-1% increase was represented in the figure.
In this example, the effect of nifuroxazide on oHSV-1 anti-tumor efficacy was evaluated. oHSV-1 infected treated glioma cells were incubated with low concentration of nifuroxazide. Replication increased 27- and 40-fold with 0.5 μM nifuroxazide and 10 μM nifuroxazide treated U87 cells respectively. Similarly, virus replication increased 0.8- and 4.7-fold virus in 9L cells treated with 0.5 μM nifuroxazide and 10 μM nifuroxazide respectively (FIG. 2A).

Another assay addresses T1, STAT3 (Mus musculus, UniProt P42227).
T1 construct: Total protein was extracted after 24 hours and subjected to western blot analysis; endogenous in cells; host or cells: CT26 cells, with or without HrR3 infection
Description: Western blot of STAT3 phosphorylation in CT26 cells. As to conditions: 24 hours. Format: cell-based. The method, then:
FIG. 19A and FIG. 19B, U87 cells (A) or CT26 cells (B) were treated with the indicated concentrations of HrR3 or NF or a combination. Total protein was extracted after 24 hours and subjected to western blot analysis. Band intensity was measured using Image J software and normalized to β-actin. Samples were run in triplicate and data are as means±S.E. Statistically significant differences are indicated by P<0.05 or P<0.01. FIG. 19C, Mice subcutaneously bearing U87 tumors were intratumorally injected with a single dose of HrR3 virus (1×10^6 PFU) and/or peritoneally injected doses of NF as indicated. Tumors were harvested on day 10 post treatment and total protein was extracted from a mouse of each treatment group and subjected to western blot analysis in triplicate. Results are reported as means±S.E.
NF is a known inhibitor of STAT1 and STAT3. To evaluate the underlying molecular mechanism of the anti-tumour effect of the NF and oHSV-1 combination, the STAT1 and STAT3 status in U87 cells (FIG. 19A) and CT26 cells (FIG. 19B) cells was determined after an overnight treatment with NF and oncolytic viruses.
A general note: A western blot detects proteins with antibodies after separation by electrophoresis.

The next assay relates to subcutaneous U87 tumor. Description: Subcutaneous U87 tumor bearing mice, tumor size after nifuroxazide. The following applies: injected in the peritoneum, after 7 days treatment. Format: in vivo. The method, then:
FIGS. 1A-1B are graphs that show an anti-tumor effect of nifuroxazide. (FIG. 1A) Cells were treated with indicated concentration of nifuroxazide for 72 hours. Cytotoxicity was measured by using MTT assay. (FIG. 1B) Subcutaneously U87 tumor bearing mice were peritoneally injected with indicated doses of nifuroxazide. Tumor size was measured using calipers at day 7 post nifuroxazide treatment.
In this example, the antitumor effect of nifuroxazide is evaluated in different tumor cells. Cells were treated with nifuroxazide for 72 hours (FIG. 1A). […] To verify the anti-tumor efficacy of nifuroxazide in vivo, animals with subcutaneous U87 tumor implants were injected in the peritoneum with vehicle, 1 mg/kg nifuroxazide and 50 mg/kg nifuroxazide. […] Tumor volume was reduced around 25% and 60% after 7 days treatment with 1 mg/kg nifuroxazide and 50 mg/kg nifuroxazide respectively (FIG. 1B).

T1 sequence (P42227 whole entry): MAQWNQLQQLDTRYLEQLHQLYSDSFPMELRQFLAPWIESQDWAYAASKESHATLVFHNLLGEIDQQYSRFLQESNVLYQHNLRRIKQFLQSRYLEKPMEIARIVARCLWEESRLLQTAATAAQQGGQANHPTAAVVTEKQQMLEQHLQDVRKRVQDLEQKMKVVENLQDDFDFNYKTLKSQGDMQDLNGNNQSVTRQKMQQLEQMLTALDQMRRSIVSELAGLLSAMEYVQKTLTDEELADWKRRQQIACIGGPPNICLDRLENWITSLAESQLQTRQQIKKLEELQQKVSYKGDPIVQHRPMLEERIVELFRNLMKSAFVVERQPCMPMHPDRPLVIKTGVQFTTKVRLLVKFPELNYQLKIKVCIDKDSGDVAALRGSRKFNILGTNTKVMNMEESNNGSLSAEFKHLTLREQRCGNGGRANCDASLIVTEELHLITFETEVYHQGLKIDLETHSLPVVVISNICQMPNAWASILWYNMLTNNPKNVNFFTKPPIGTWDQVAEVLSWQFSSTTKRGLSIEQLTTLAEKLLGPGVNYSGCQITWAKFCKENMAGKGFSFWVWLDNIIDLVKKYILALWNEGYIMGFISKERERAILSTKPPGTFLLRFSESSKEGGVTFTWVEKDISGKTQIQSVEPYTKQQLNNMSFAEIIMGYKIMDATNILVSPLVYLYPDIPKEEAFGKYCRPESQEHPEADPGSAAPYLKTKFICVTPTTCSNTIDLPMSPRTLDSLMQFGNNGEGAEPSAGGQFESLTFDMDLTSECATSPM

Turning to `O=C1Nc2ccc3ncsc3c2/C1=C/c1c[nH]cn1` [C16, 6,8-Dihydro-8-(1H-imidazol-5-ylmethylene)-7H-pyrrolo[2,3-g]benzothiazol-7-one], the “oHSV-1 titer in the tumor mass (viral DNA copy number, qPCR)” value in assay [1] is given as “significantly enhanced oHSV-1 titer”.
In the case of `O=C(N/N=C/c1ccc([N+](=O)[O-])o1)c1ccc(O)cc1` [nifuroxazide, Benzoic acid, 4-hydroxy-, [(5-nitro-2-furanyl)metylene]hydrazide], the PCR viral titer result in the assay with HrR3 in U87 glioma cells is “dose dependent HrR3 replication enhancement”. In addition, the “HrR3 induced upregulation of STAT3 phosphorylation” value at STAT3 was “effectively suppressed”. For the same compound, on STAT3 (NF alone), the “phosphorylation of STAT3” value is recorded as “dose dependent inhibition”. Moreover, the entries for the “Tumor volume was reduced” value in the assay on subcutaneous U87 tumor (1 mg/kg nifuroxazide) and in the assay with subcutaneous U87 tumor (50 mg/kg nifuroxazide) were “around 25%” and approximately 60%, respectively.
